Assay results as given in patent US20030017186A1, “Carboxylic acid fluorides as pesticides” (priority 1999, published 2003).

Columns and labels:
[1] = tested on: House longhorn beetle (Hylotrupes bajulus); test: Fumigation test in glass vessel, house longhorn beetles; format: in vivo; settings: HYLOBA beetles; Example 5; ACF 50.6/48.2/51.4 g/m^3, SF 47.4/44.6/41 g/m^3 (1st/2nd/3rd fumigation); 23/23/22° C.
Text: (§1) b1) House longhorn beetle (Hylotrupes bajulus)=HYLOBA
(§2) The test organisms, separated by species, were placed into a glass vessel measuring 30 cm×30 cm×60 cm, which was sealed with a glass lid so as to be airtight. The adults and the larvae of the mealworm beetle (Tenebrio molitor) and the broad-horned flour beetle (Gnathocerus cornutus) were placed into small glass vessels approximately 5 cm in diameter, which were closed with a gauze lid and in which they could freely move about. The larvae of the rice weevil had burrowed into seeds of grain. The wood pest larvae were inserted into small blocks of wood measuring 5 cm×2.5 cm×2 cm. The openings were sealed with wads of cotton wool. Only one each of the larvae of the house longhorn beetle (Hylotrupes bajulus) was inserted into a piece of wood, while 6-8 larvae of the common furniture beetle (Anobium punctatum) were inserted into each piece of wood.
(§3) The respective gas was then introduced into the fumigation vessel through a gas line from a gas tank that contained the specified amount of gas. After a defined time period, the fumigation vessel was purged with compressed air. The discharged gas was purified by an attached gas scrubber.
(§4) The beetles were observed until they died. This point was recorded for each species. The larvae of the wood pests as well as the larvae of the rice weevil (Sitophilus oryzae) had to be picked out of the wood or the grain to check their condition. If any of the animals were still alive, the wooden test blocks remaining in the vessel were fumigated again and were reexamined after the corresponding time span had elapsed. The same number of animals in the untreated control was also checked at each point.
(§5) The vitality of the animals was checked at certain time intervals. The beetles could be observed through the fumigation vessel. This was also true for the larvae of the mealworm beetle and the broad-horned flour beetle. The wooden test blocks of the wood pest larvae were opened with hammer and chisel. Tweezers were used to pull the rice weevil larvae out of the grain seeds. The exact time intervals and the number of the evaluated pests were documented in the test results.

[2] = tested on: House longhorn beetle (Hylotrupes bajulus) larvae; test: Fumigation test in glass vessel, house longhorn beetle larvae in wood blocks; format: in vivo; settings: HYLOBA larvae in wood blocks; Example 5; ACF 50.6/48.2/51.4 g/m^3, SF 47.4/44.6/41 g/m^3 (1st/2nd/3rd fumigation); 23/23/22° C.
Text: as §1, §2, §3, §4, §5

[3] = tested on: Common furniture beetle (Anobium punctatum); test: Fumigation test in glass vessel, common furniture beetles; format: in vivo; settings: ANOBPU beetles; Example 5; ACF 50.6/48.2/51.4 g/m^3, SF 47.4/44.6/41 g/m^3 (1st/2nd/3rd fumigation); 23/23/22° C.
Text: (§6) b2) Common furniture beetle (Anobium punctatum)=[…]
as §2, §3, §4, §5

[4] = tested on: Common furniture beetle (Anobium punctatum) larvae; test: Fumigation test in glass vessel, common furniture beetle larvae in wood blocks; format: in vivo; settings: ANOBPU larvae in wood blocks; Example 5; ACF 50.6/48.2/51.4 g/m^3, SF 47.4/44.6/41 g/m^3 (1st/2nd/3rd fumigation); 23/23/22° C.
Text: as §6, §2, §3, §4, §5

[5] = tested on: Mealworm beetle (Tenebrio molitor); test: Fumigation test in glass vessel, mealworm beetles; format: in vivo; settings: TENEMO beetles; Example 5; ACF 50.6/48.2/51.4 g/m^3, SF 47.4/44.6/41 g/m^3 (1st/2nd/3rd fumigation); 23/23/22° C.
Text: (§7) a1) Mealworm beetle (Tenebrio molitor)=TENEMO
as §2, §3, §4, §5

[6] = tested on: Mealworm beetle (Tenebrio molitor) larvae; test: Fumigation test in glass vessel, mealworm beetle larvae; format: in vivo; settings: TENEMO larvae; Example 5; ACF 50.6/48.2/51.4 g/m^3, SF 47.4/44.6/41 g/m^3 (1st/2nd/3rd fumigation); 23/23/22° C.
Text: as §7, §2, §3, §4, §5

[7] = tested on: Rice weevil (Sitophilus oryzae); test: Fumigation test in glass vessel, rice weevils; format: in vivo; settings: SITTOR beetles; Example 5; ACF 50.6/48.2/51.4 g/m^3, SF 47.4/44.6/41 g/m^3 (1st/2nd/3rd fumigation); 23/23/22° C.
Text: (§8) a2) Rice weevil (Sitophilus oryzae)=SITTOR
as §2, §3, §4, §5

[8] = tested on: Rice weevil (Sitophilus oryzae) larvae; test: Fumigation test in glass vessel, rice weevil larvae in grain seeds; format: in vivo; settings: SITTOR larvae in grain seeds; Example 5; ACF 50.6/48.2/51.4 g/m^3, SF 47.4/44.6/41 g/m^3 (1st/2nd/3rd fumigation); 23/23/22° C.
Text: as §8, §2, §3, §4, §5

[9] = tested on: Broad-horned flour beetle (Gnathocerus cornutus); test: Fumigation test in glass vessel, broad-horned flour beetles; format: in vivo; settings: GNATCO beetles; Example 5; ACF 50.6/48.2/51.4 g/m^3, SF 47.4/44.6/41 g/m^3 (1st/2nd/3rd fumigation); 23/23/22° C.
Text: (§9) a3) Broad-horned flour beetle (Gnathocerus cornutus)=GNATCO
as §2, §3, §4, §5

[10] = tested on: Broad-horned flour beetle (Gnathocerus cornutus) larvae; test: Fumigation test in glass vessel, broad-horned flour beetle larvae; format: in vivo; settings: GNATCO larvae; Example 5; ACF 50.6/48.2/51.4 g/m^3, SF 47.4/44.6/41 g/m^3 (1st/2nd/3rd fumigation); 23/23/22° C.
Text: as §9, §2, §3, §4, §5

[11] = tested on: Saw-toothed grain beetle (Oryzaephilus surinamensis); test: Fumigation test in glass vessel, saw-toothed grain beetles; format: in vivo; settings: ORYZSA beetles; Example 5; ACF 50.6/48.2/51.4 g/m^3, SF 47.4/44.6/41 g/m^3 (1st/2nd/3rd fumigation); 23/23/22° C.
Text: a4) Saw-toothed grain beetle (Oryzaephilus surinamensis)=ORYZSA
as §2, §3, §4, §5

[12] = tested on: American drywood termites (Cryptotermes brevis); test: Termite control fumigation test, Cryptotermes brevis; format: in vivo; settings: Example 6
Text: (§10) c) American drywood termites (Cryptotermes brevis)=CRYPBR, and Incisitermes tabogae=INCITA
as §2, §3, §4, §5

Incisitermes tabogae = test: Termite control fumigation test, Incisitermes tabogae; format: in vivo; settings: Example 6
Text: as §10, §2, §3, §4, §5

wood and storage pests = test: Fumigation test, wood and storage pests (overall statements); format: in vivo; settings: Example 5; wood and storage pests
Text: as §2, §3, §4, §5

termites = test: Termite control fumigation test (overall statements); format: in vivo, Cryptotermes brevis, Incisitermes tabogae; settings: Example 6; compared with those treated with acetyl fluoride
Text: as §10, §2, §3, §4
as §5, with “The wooden test blocks of the wood pest larvae were opened with hammer and chisel. Tweezers were used to pull the rice weevil larvae out of the grain seeds.” left out

[13] = CRYPBR termites, ACF 50.0/53.8 g/m^3, SF 47.8/44.8 g/m^3 (1st/2nd fumigation), 23.7/24° C.
[14] = INCITA termites, ACF 50.0/53.8 g/m^3, SF 47.8/44.8 g/m^3 (1st/2nd fumigation), 23.7/24° C.

O=S(=O)(F)F [SF, sulfuryl fluoride, reference compound]
Number alive, 30 min. after Start of Fumigation [1]: 4 | Number alive, 1 hr. after Start of Fumigation [1]: 2 | Number alive, 3 hrs. after Start of Fumigation [1]: 0 | Number dead, 30 min. after Start of Fumigation [1]: 0 | Number dead, 1 hr. after Start of Fumigation [1]: 2 | Number dead, 3 hrs. after Start of Fumigation [1]: 4 | Number alive, 1 hr. after Start of Fumigation [2]: 3 | Number alive, 3 hrs. after Start of Fumigation [2]: 0 | Number alive, 6 hrs after Start of Fumigation [2]: 0 | Number dead, 1 hr. after Start of Fumigation [2]: 1 | Number dead, 3 hrs. after Start of Fumigation [2]: 4 | Number dead, 6 hrs after Start of Fumigation [2]: 6 | Number alive, 30 min. after Start of Fumigation [3]: 0 | Number dead, 30 min. after Start of Fumigation [3]: 6 | Number alive, 1 hr. after Start of Fumigation [4]: 3 | Number alive, 3 hrs. after Start of Fumigation [4]: 4 | Number alive, 6 hrs after Start of Fumigation [4]: 0 | Number dead, 1 hr. after Start of Fumigation [4]: 0 | Number dead, 3 hrs. after Start of Fumigation [4]: 0 | Number dead, 6 hrs after Start of Fumigation [4]: 8 | Number alive, 30 min. after Start of Fumigation [5]: 0 | Number dead, 30 min. after Start of Fumigation [5]: 10 | Number alive, 30 min. after Start of Fumigation [6]: 1 | Number alive, 1 hr. after Start of Fumigation [6]: 1 | Number alive, 3 hrs. after Start of Fumigation [6]: 0 | Number dead, 30 min. after Start of Fumigation [6]: 4 | Number dead, 1 hr. after Start of Fumigation [6]: 4 | Number dead, 3 hrs. after Start of Fumigation [6]: 5 | Number alive, 30 min. after Start of Fumigation [7]: 0 | Number dead, 30 min. after Start of Fumigation [7]: 15 | Number alive, 1 hr. after Start of Fumigation [8]: 0 | Number dead, 1 hr. after Start of Fumigation [8]: 15 | Number alive, 30 min. after Start of Fumigation [9]: 0 | Number dead, 30 min. after Start of Fumigation [9]: 15 | Number alive, 30 min. after Start of Fumigation [10]: 15 | Number alive, 1 hr. after Start of Fumigation [10]: 0 | Number dead, 30 min. after Start of Fumigation [10]: 0 | Number dead, 1 hr. after Start of Fumigation [10]: 15 | Number alive, 30 min. after Start of Fumigation [11]: 0 | Number dead, 30 min. after Start of Fumigation [11]: 15 | Number alive, 30 min. after 1st Fumigation [12, 13]: 180 | Number alive, 1 hr. after 1st Fumigation [12, 13]: 60 | Number alive, 3 hrs. after 1st Fumigation [12, 13]: 0 | Number dead, 30 min. after 1st Fumigation [12, 13]: 0 | Number dead, 1 hr. after 1st Fumigation [12, 13]: 0 | Number dead, 3 hrs. after 1st Fumigation [12, 13]: 120 | Number of Cryptotermes still alive on reexamination after 24-hour observation period ([12]; out of 60 animals fumigated 1 hour, then 24-hour observation): 7 | Condition of Incisitermes on reexamination after 24-hour observation period (Incisitermes tabogae; animals fumigated 1 hour, then 24-hour observation): dead | Number alive, 30 min. after 1st Fumigation (Incisitermes tabogae; [14]): 90 | Number alive, 1 hr. after 1st Fumigation (Incisitermes tabogae; [14]): 30 | Number alive, 3 hrs. after 1st Fumigation (Incisitermes tabogae; [14]): 0 | Number dead, 30 min. after 1st Fumigation (Incisitermes tabogae; [14]): 0 | Number dead, 1 hr. after 1st Fumigation (Incisitermes tabogae; [14]): 0 | Number dead, 3 hrs. after 1st Fumigation (Incisitermes tabogae; [14]): 60 | Speed of action compared with acetyl fluoride (wood and storage pests): clearly acts more slowly than acetyl fluoride | Liveliness of termites after 1 hour of fumigation (termites): more lively overall
